The target in the first assay is MAPK14 (human) (UniProt Q16539). In words: Inhibition of LPS Induced TNF-alpha Production in THP1 Cells.
MAPK14 (human), sequence (Q16539 whole entry, looked up): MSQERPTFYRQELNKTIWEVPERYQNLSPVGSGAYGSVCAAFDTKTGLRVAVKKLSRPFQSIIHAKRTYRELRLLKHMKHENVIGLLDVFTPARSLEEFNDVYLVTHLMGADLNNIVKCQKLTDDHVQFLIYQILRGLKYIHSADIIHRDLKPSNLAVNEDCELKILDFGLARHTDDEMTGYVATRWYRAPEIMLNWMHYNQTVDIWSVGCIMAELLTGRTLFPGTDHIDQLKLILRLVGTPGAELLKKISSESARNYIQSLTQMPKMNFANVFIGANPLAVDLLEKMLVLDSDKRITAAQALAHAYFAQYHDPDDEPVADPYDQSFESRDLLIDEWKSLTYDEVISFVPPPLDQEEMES
For orientation: IC50 means the concentration at which inhibition is half-maximal. Take `C[C@H](Nc1nccc(-c2c(-c3ccc(F)cc3)c(=O)n3n2CCC3)n1)C1CCCCC1`: the IC50 was 38 nM.

For `CC(C)(C)Nc1nccc(-c2c(-c3ccc(F)cc3)c(=O)n3n2CCC3)n1`, the 50% inhibitory concentration (IC50) was determined as 24 nM.

For `C[C@H](Nc1nccc(-c2c(-c3ccc(F)cc3)c(=O)n3n2CCC3)n1)c1ccccc1`, the concentration for half-maximal inhibition (IC50) is 3 nM.

As to `COC[C@H](C)Nc1nccc(-c2c(-c3ccc(F)cc3)c(=O)n3n2CCC3)n1`, the half-inhibitory concentration (IC50) is 50 nM.

Turning to `O=c1c(-c2ccc(F)cc2)c(-c2ccnc(Nc3c(Cl)cccc3Cl)n2)n2n1CCC2`, the IC50 came to 4 nM.

In turn, `O=c1c(-c2ccc(F)cc2)c(-c2ccnc(NCc3ccccc3)n2)n2n1CCC2` had an IC50 of 74 nM.

`C[C@H](Nc1nccc(-c2c(-c3ccc(F)cc3)c(=O)n3n2CCCC3)n1)c1ccccc1` returned an IC50 of 29 nM.

Regarding `O=c1c(-c2ccc(F)cc2)c(-c2ccnc(NCC3CC3)n2)n2n1CCC2`, the IC50 was found to be 94 nM.

Consider `O=c1c(-c2ccc(F)cc2)c(-c2ccnc(Nc3ccccn3)n2)n2n1CCC2`, for which the half-maximal inhibitory concentration (IC50) is 600 nM.

On to `O=c1c(-c2ccc(F)cc2)c(-c2ccnc(Nc3ccccc3)n2)n2n1CCC2`, for which the IC50 stood at 80 nM.

In turn, `O=c1c(-c2ccc(F)cc2)c(-c2ccnc(Nc3c(F)cccc3F)n2)n2n1CCC2` gave an IC50 of 6 nM.

Consider `CC[C@H](C)Nc1nccc(-c2c(-c3ccc(F)cc3)c(=O)n3n2CCCC3)n1`, for which the half-inhibitory concentration (IC50) is 106 nM.

`C[C@H](Nc1nccc(-c2c(-c3ccc(F)cc3)c(=O)n3n2CCCC3)n1)C(C)(C)O` showed a half-inhibitory concentration (IC50) of 260 nM.

The compound `O=c1c(-c2ccc(F)cc2)c(-c2ccnc(Nc3c(Cl)ncnc3Cl)n2)n2n1CCC2` displayed a concentration for half-maximal inhibition (IC50) of 476 nM.

In turn, `O=c1c(-c2ccc(F)cc2)c(-c2ccnc(NCc3cccnc3)n2)n2n1CCC2` showed an IC50 of 121 nM.

Consider `Cc1ccc([C@H](C)Nc2nccc(-c3c(-c4ccc(F)cc4)c(=O)n4n3CCC4)n2)cc1`, for which the concentration for half-maximal inhibition (IC50) was 37 nM.

With `COC[C@H](C)Nc1nccc(-c2c(-c3ccc(F)cc3)c(=O)n3n2CCCC3)n1`, the IC50 is 543 nM.

Compound `C=CCNc1nccc(-c2c(-c3ccc(F)cc3)c(=O)n3n2CCC3)n1` yielded a half-maximal inhibitory concentration (IC50) of 30 nM.

The compound `COC(=O)[C@H](Nc1nccc(-c2c(-c3ccc(F)cc3)c(=O)n3n2CCC3)n1)c1ccccc1` displayed a 50% inhibitory concentration (IC50) of 147 nM.

`C[C@@H](Nc1nccc(-c2c(-c3ccc(F)cc3)c(=O)n3n2CCC3)n1)c1ccccc1`: the 50% inhibitory concentration (IC50) was 27 nM.

As to `CC[C@H](C)Nc1nccc(-c2c(-c3ccc(F)cc3)c(=O)n3n2CCC3)n1`, the IC50 turned out to be 2 nM.

In the case of `O=c1c(-c2ccc(F)cc2)c(-c2ccnc(NC3CC3)n2)n2n1CCC2`, the half-maximal inhibitory concentration (IC50) came to 78 nM.

The compound `O=c1c(-c2ccc(F)cc2)c(-c2ccnc(NCc3ccccn3)n2)n2n1CCC2` came in with an IC50 of 263 nM.

`COCCCNc1nccc(-c2c(-c3ccc(F)cc3)c(=O)n3n2CCC3)n1`: the IC50 amounted to 301 nM.

The next assay has the same target. In words: Inhibition of LPS Induced TNF-alpha Production in Human PBMC.
In the case of `C[C@H](Nc1nccc(-c2c(-c3ccc(F)cc3)c(=O)n3n2CCC3)n1)C(C)(C)O`, the 50% inhibitory concentration (IC50) was 8 nM.

`C[C@H](Nc1nccc(-c2c(-c3ccc(F)cc3)c(=O)n3n2CCC3)n1)c1ccccc1` yielded a 50% inhibitory concentration (IC50) of 0.4 nM.

As for `COC[C@H](C)Nc1nccc(-c2c(-c3ccc(F)cc3)c(=O)n3n2CCC3)n1`, the half-maximal inhibitory concentration (IC50) was found to be 16 nM.

A further assay has the same target. In words: Inhibition of LPS Induced IL-1Beta Production in Huamn PBMC.
As to `C[C@H](Nc1nccc(-c2c(-c3ccc(F)cc3)c(=O)n3n2CCC3)n1)C(C)(C)O`, the IC50 came out at 42 nM.

Regarding `C[C@H](Nc1nccc(-c2c(-c3ccc(F)cc3)c(=O)n3n2CCC3)n1)c1ccccc1`, the 50% inhibitory concentration (IC50) worked out at 0.8 nM.

On to `COC[C@H](C)Nc1nccc(-c2c(-c3ccc(F)cc3)c(=O)n3n2CCC3)n1`, for which the IC50 worked out at 39 nM.
